In patent publication US6410792B1, “Amide derivatives and methods for using the same as selective neuropeptide Y receptor antagonists” (Bayer Corporation, priority 1997, dated 2002):

Tests used:
[1] = biological target: T1, Y2 receptor (Homo sapiens, UniProt P49146); experiment: Y2 receptor binding assay ([125I]PYY, membrane protein); settings: [125I]PYY binding, membrane protein; read-out: hNPY2 IC50
T1 sequence (P49146 1-381): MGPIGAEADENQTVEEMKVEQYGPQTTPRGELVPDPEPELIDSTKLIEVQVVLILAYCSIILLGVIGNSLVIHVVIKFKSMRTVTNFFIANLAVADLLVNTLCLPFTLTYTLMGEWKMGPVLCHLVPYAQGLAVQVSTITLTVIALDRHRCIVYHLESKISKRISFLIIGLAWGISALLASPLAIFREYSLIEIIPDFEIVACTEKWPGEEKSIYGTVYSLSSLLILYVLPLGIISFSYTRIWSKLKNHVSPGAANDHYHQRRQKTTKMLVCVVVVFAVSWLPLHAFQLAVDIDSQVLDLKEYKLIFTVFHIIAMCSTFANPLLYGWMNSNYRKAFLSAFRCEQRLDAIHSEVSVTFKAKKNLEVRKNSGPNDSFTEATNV
Protocol: B. Human Y2 and Y4/PP1 Receptor Binding Assays
Binding assays were performed on GF/C Millipore 96-well plates pretreated with 0.02% polyethylenimine. The binding buffer for rat Y2 binding is Krebs-Ringer bicarbonate (pH 7.4) containing 0.01% BSA and 0.005% bacitracin. Samples consist of membrane protein, 25 pM [1251]PYY and drug dilution. Nonspecific binding is defined by 1 μM NPY. The binding buffer for human Y4/PP1 binding consists of 137 mM NaCl, 5.4 mM KCl, 0.44 mM KH2PO4, 1.26 mM CaCl2, 0.81 mM MgSO4, 20 mM HEPES, 1 mM dithiothreitol, 0.1% bacitracin, 100 mg/l streptomycin sulfate, 1 mg/l aprotinin, 10 mg/ml soybean trypsin inhibitor and 0.3% BSA, pH 7.4. Samples consist of membrane protein, 50 pM human [1251]human PP (hPP: NEN DuPont, Boston, Mass.) and drug dilution. 1 μM hPP is used to define nonspecific binding.
After a 2 hour incubation at room temperature with constant mixing, the samples are aspirated on a vacuum manifold, and rinsed with ice-cold binding buffer. The amount of radioactivity in each well is quantitated with either gamma counting or liquid scintillation.

[2] = biological target: T2, Human NPY5 receptor (Homo sapiens, UniProt Q15761); experiment: Human NPY5 receptor binding assay ([125I]PYY, membrane protein); settings: [125I]PYY binding, read-out: hNPY5 IC50
T2 sequence (Q15761 1-445): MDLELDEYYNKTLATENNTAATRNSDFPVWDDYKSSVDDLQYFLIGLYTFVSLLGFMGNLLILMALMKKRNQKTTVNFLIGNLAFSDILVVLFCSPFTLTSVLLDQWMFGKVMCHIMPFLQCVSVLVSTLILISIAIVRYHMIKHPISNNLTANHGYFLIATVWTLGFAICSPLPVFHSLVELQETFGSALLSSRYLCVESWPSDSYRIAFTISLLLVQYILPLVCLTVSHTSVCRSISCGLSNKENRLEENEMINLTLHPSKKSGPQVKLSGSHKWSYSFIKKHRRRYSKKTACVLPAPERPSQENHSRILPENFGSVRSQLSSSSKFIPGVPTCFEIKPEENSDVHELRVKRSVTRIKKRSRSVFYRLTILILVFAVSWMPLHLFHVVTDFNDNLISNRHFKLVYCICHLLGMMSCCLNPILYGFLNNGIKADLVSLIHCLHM
Protocol: C. Human and Rat NPY5 Receptor Binding Assays
Binding assays are performed on GF/C Millipore 96well plates pretreated with 0.02% polyethylenimine. The binding buffer is 25 mM Tris, 120 mM NaCl, 5 mM KCl, 1.2 mM KH2PO4, 2.5 mM CaCl2, 1.2 mM MgSO4, 0.1% BSA and 0.5 mg/ml bacitracin, pH 7.4. Samples consist of membrane protein, 75-100 pM [125I]PYY (porcine, NEN-DuPont) and drug dilution. Nonspecific binding is defined by 1 μM PYY. After a 2 hour incubation at room temperature with constant mixing, the samples are aspirated on a vacuum manifold, and rinsed with ice-cold binding buffer. The amount of radioactivity in each well is quantitated with either gamma counting or liquid scintillation.

Molecule	IC50 [1] [µM]	IC50 [2] [µM]
CN(C)C1(C(N)=O)CCN(CC(=O)Nc2ccc(C3CCCCC3)cc2)CC1 [Compound 36, 1-[(4-Cyclohexyl-phenylcarbamoyl)-methyl]-4-dimethylamino-piperidine-4-carboxylic acid amide]	> 5	0.71
Cc1ccc(C2(O)CCN(CC(=O)Nc3ccc(C(=O)c4ccccc4)cc3)CC2)cc1 [Compound 71, N-(4-Benzoyl-phenyl)-2-(4-hydroxy-4-p-tolyl-piperidin-1-yl)-acetamide]	> 5	0.22
O=C(CN1CCC[C@H]1CO)Nc1ccc(C(=O)c2ccccc2)cc1 [Compound 85, N-(4-Benzoyl-phenyl)-2-(2S-hydroxymethyl-pyrrolidin-1-yl)-acetamide]	> 5	2.8
O=C(CN1CCC[C@@H]1C(O)(c1ccccc1)c1ccccc1)Nc1ccc(C2CCCCC2)cc1 [Compound 83, N-(4-Cyclohexyl-phenyl)-2-[2R-(hydroxy-diphenyl-methyl)-pyrrolidin-1-yl]-acetamide]	> 5	0.92
O=C(CN1CCCC1c1cccnc1)Nc1ccc(C(=O)c2ccccc2)cc1 (stereo not drawn) [Compound 77, N-(4-Benzoyl-phenyl)-2-(2-pyridin-3-yl-pyrrolidin-1-yl)-acetamide]	> 5	2.6
CCNC1(C(N)=O)CCN(CC(=O)Nc2ccc(C(=O)c3ccccc3)cc2)CC1 [Compound 48, 1-[(4-Benzoyl-phenylcarbamoyl)-methyl]-4-ethylamino-piperidine-4-carboxylic acid amide]	> 5	0.02
N-(4-Benzoyl-phenyl)-2-(4-benzyl-4-hydroxy-piperidin-1-yl)-acetamide [Compound 111]	> 5	0.16
O=C(CN1CCC(O)C1)Nc1ccc(C2CCCCC2)cc1 (stereo not drawn) [Compound 92, N-(4-Cyclohexyl-phenyl)-2-(3-hydroxy-pyrrolidin-1-yl)-acetamide]	> 5	1.3
(2R,4R)-1-[(4-Cyclohexyl-phenylcarbamoyl)-methyl]-4-hydroxy-pyrrolidine-2-carboxylic acid [Compound 90]	> 5	3.8
O=C(CN1CCN(Cc2ccccc2)CC1)Nc1ccc(C2CCCCC2)cc1 [Compound 13, 2-(4-Benzyl-piperazin-1-yl)-N-(4-cyclohexyl-phenyl)-acetamide]	> 5	9.1
O=C(CN1CCC2(CC1)C(=O)NCN2c1ccccc1)Nc1ccc(C(=O)c2ccccc2)cc1 [Compound 58, N-(4-Benzoyl-phenyl)-2-(4-oxo-1-phenyl-1,3,8-triaz-spiro[4.5]dec-8-yl)-acetamide]	> 5	2
O=C(CN1CCC[C@@H]1C(O)(c1ccccc1)c1ccccc1)Nc1ccc(C(=O)c2ccccc2)cc1 [Compound 82, N-(4-Benzoyl-phenyl)-2-[2R-(hydroxy-diphenyl-methyl)-pyrrolidin-1-yl]-acetamide]	> 5	> 5
O=C(CN1CCC[C@H]1C(=O)O)Nc1ccc(C(=O)c2ccccc2)cc1 [Compound 110, (2S)-1-[(4-Benzoyl-phenylcarbamoyl)-methyl]-pyrrolidine-2-carboxylic acid]	> 5	8.7
COc1ccc(C(=O)C2CCN(CC(=O)Nc3ccc(C4CCCCC4)cc3)CC2)cc1 [Compound 116, N-(4-Cyclohexyl-phenyl)-2-[4-(4-methoxy-benzoyl)-piperidin-1-yl]-acetamide]	> 5	9.5
COC(=O)[C@@H]1CCCN1CC(=O)Nc1ccc(C(=O)c2ccccc2)cc1 [Compound 107, (2S)-1-[(4-Benzoyl-phenylcarbamoyl)-methyl]-pyrrolidine-2-carboxylic acid methyl ester]	> 5	2.9
NC(=O)C1(Nc2ccccc2)CCN(CC(=O)Nc2ccc(C3CCCCC3)cc2)CC1 [Compound 31, 1-[(4-Cyclohexyl-phenylcarbamoyl)-methyl]-4-phenylamino-piperidine-4-carboxylic acid amide]	> 5	1.2
1-[(4 Benzoyl-phenylcarbamoyl)-methyl]-4-dimethylamino-piperidine-4-carboxylic acid amide [Compound 53]	> 5	0.44
CC1(C)C[C@@H]2C[C@@](C)(CN2CC(=O)Nc2ccc(C(=O)c3ccccc3)cc2)C1 [Compound 105, N-(4-Benzoyl-phenyl)-2-((1S,5R)-1,3,3-trimethyl-6-aza-bicyclo[3.2.1]oct-6-yl)-acetamide]	> 5	5.1
O=C(CN1CCN(c2cccc(Cl)c2)CC1)Nc1ccc(C(=O)c2ccccc2)cc1 [Compound 9]	> 5	0.64
O=C(CN1CCC(C(=O)O)CC1)Nc1ccc(C(=O)c2ccccc2)cc1 [Compound 40, 1-[(4-Benzoyl-phenylcarbamoyl)-methyl]-piperidine-4-carboxylic acid]	> 5	> 10
CC(=O)C1(c2ccccc2)CCN(CC(=O)Nc2ccc(C3CCCCC3)cc2)CC1 [Compound 87, 2-(4-Acetyl-4-phenyl-piperidin-1-yl)-N-(4-cyclohexyl-phenyl)-acetamide]	> 5	0.004
O=C(CN1CCC(CCCC2CCNCC2)CC1)Nc1ccc(C2CCCCC2)cc1 [Compound 23, N-(4-Cyclohexyl-phenyl)-2-[4-(3-piperidin-4-yl-propyl)-piperidin-1-yl]-acetamide]	> 5	> 10
O=C(CN(c1ccccn1)c1ccccn1)Nc1ccc(C(=O)c2ccccc2)cc1 [Compound 22, N-(4-Benzoyl-phenyl)-2-(di-pyridin-2-yl-amino)-acetamide]	> 5	9.9
O=C(CN1CCC(CCC2CCNCC2)CC1)Nc1ccc(C2CCCCC2)cc1 [Compound 54, N-(4-Cyclohexyl-phenyl)-2-[4-(2-piperidin-4-yl-ethyl)-piperidin-1-yl]-acetamide]	> 5	7.3
O=C(CN1CCC(O)(CCCc2ccccc2)CC1)Nc1ccc(C(=O)c2ccccc2)cc1 [Compound 60, N-(4-Benzoyl-phenyl)-2-[4-hydroxy-4-(3-phenyl-propyl)-piperidin-1-yl]-acetamide]	> 5	4.2
O=C(CN1CCN(c2ccc(Cl)cc2)CC1)Nc1ccc(C(=O)c2ccccc2)cc1 [Compound 10, N-(4-Benzoyl-phenyl)-2-[4-(4-chloro-phenyl)-piperazin-1-yl]-acetamide]	> 5	2.9
CC1(C)C[C@@H]2C[C@@](C)(CN2CC(=O)Nc2ccc(C3CCCCC3)cc2)C1 [Compound 94, N-(4-Cyclohexyl-phenyl)-2-((1S,5R)-1,3,3-trimethyl-6-aza-bicyclo[3.2.1]oct-6-yl)-acetamide]	> 5	3.2
N-(4-Cyclohexyl-phenyl)-2-[4-hydroxy-4-(3-trifluoromethyl-phenyl)-piperidin-1-yl]-acetamide [Compound 62]	> 5	0.42
NC(=O)C1(Nc2ccccc2)CCN(CC(=O)Nc2ccc(C(=O)c3ccccc3)cc2)CC1 [Compound 47, 1-[(4-Benzoyl-phenylcarbamoyl)-methyl]-4-phenylamino-piperidine-4-carboxylic acid amide]	> 5	1.2
O=C(CNCc1ccccc1)Nc1ccc(C2CCCCC2)cc1 [Compound 11, 2-Benzylamino-N-(4-cyclohexyl-phenyl)-acetamide]	> 5	2.8
